Measurements: patent US10538555B2, “Macrocyclic inhibitors of the PD-1/PD-L1 and CD80(B7-1)/PD-L1 protein/protein interactions” (BRISTOL-MYERS SQUIBB COMPANY, priority 2014, dated 2020)
Where a SMILES comes first, the peptide text is derived from it. Bridges are numbered along the chain shown (N, C = ends). [ ]: non-standard residue; d: D form. ξ: configuration not given here. Trp(1-CH2COOH) = N[C@@H](Cc1cn(CC(=O)O)c2ccccc12)C(=O)O; Trp(5-OH) = N[C@@H](Cc1c[nH]c2ccc(O)cc12)C(=O)O; d(cisHyp) = O=C(O)[C@H]1C[C@@H](O)CN1; Hyp = O=C(O)[C@@H]1C[C@@H](O)CN1; dHyp = O=C(O)[C@H]1C[C@H](O)CN1; Thr(3ξ) = CC(O)[C@H](N)C(=O)O; NMeNle = CCCC[C@H](NC)C(=O)O; NMeA = CN[C@@H](C)C(=O)O; Dab = NCC[C@H](N)C(=O)O; Dap = NC[C@H](N)C(=O)O; ξC = NC(CS)C(=O)O

target: T1, Human PD-L1/PD-1 (Homo sapiens, UniProt Q9NZQ7); experiment: HTRF Human PD-L1/PD-1 binding assay (PD-1-Ig/PD-L1-His); settings: PD-L1-His 10 nM, PD-1-Ig 20 nM; class symbol; read-out: HTRF Human PD-L1/PD-1 Binding Assay IC50 Range
T1 construct: TVMV protease cleavage site (C); made in house; host or cells: HEK293T cells
How it was run: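 Step 1: compound with PD-L1-His (10 nM final), 15 min. Step 2: PD-1-Ig (20 nM final), 15 min. Step 3: Eu-cryptate anti-Ig (1 nM) plus APC anti-His (20 nM), 30 min equilibration. Signal taken as 665 nm/620 nm ratio.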

T1 sequence (Q9NZQ7 with tags, fused parts or gaps): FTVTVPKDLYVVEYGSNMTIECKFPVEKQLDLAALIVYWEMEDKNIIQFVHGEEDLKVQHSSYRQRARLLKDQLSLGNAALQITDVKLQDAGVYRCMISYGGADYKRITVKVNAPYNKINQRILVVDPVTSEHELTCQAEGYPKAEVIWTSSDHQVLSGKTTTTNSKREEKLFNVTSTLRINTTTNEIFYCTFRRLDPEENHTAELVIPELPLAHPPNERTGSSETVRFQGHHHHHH

| SMILES | IC50 |
| --- | --- |
| CCCC[C@H]1C(=O)N(C)[C@@H](CCCC)C(=O)N[C@@H](CO)C(=O)N[C@H](C(=O)NCC(N)=O)CSCC(=O)N[C@@H](Cc2ccc(OC)cc2)C(=O)N(C)[C@@H](C)C(=O)N[C@@H](CC(N)=O)C(=O)N2CCC[C@H]2C(=O)N[C@@H](Cc2c[nH]cn2)C(=O)N[C@@H](CCC(N)=O)C(=O)N2C[C@H](O)C[C@H]2C(=O)N[C@@H](Cc2c[nH]c3ccccc23)C(=O)N[C@@H](CO)C(=O)N[C@@H](Cc2cn(CC(=O)O)c3ccccc23)C(=O)N1C [Example 7143] ({CH2CO}-Y(Me)[NMeA]NPHQ[Hyp]WS[Trp(1-CH2COOH)][NMeNle][NMeNle]SCG-NH2; thioether N-14) | 1 to 9.9 nM |
| CCCC[C@H]1C(=O)N(C)[C@@H](CCCC)C(=O)N[C@@H](CO)C(=O)N[C@H](C(=O)NCC(N)=O)CSCC(=O)N[C@@H](Cc2ccc(OC)cc2)C(=O)N(C)[C@@H](C)C(=O)N[C@@H](CC(N)=O)C(=O)N2CCC[C@H]2C(=O)N[C@@H](CO)C(=O)N[C@@H](CCC(N)=O)C(=O)N2C[C@H](O)C[C@H]2C(=O)N[C@@H](Cc2c[nH]c3ccccc23)C(=O)N[C@@H](CO)C(=O)N[C@@H](Cc2cn(CC(=O)O)c3ccccc23)C(=O)N1C [Example 7144] ({CH2CO}-Y(Me)[NMeA]NPSQ[Hyp]WS[Trp(1-CH2COOH)][NMeNle][NMeNle]SCG-NH2; thioether N-14) | 1 to 9.9 nM |
| CCCC[C@H]1C(=O)N(C)[C@@H](CCCC)C(=O)N[C@@H](C(C)O)C(=O)N[C@H](C(=O)NCC(N)=O)CSCC(=O)N[C@@H](Cc2ccc(OC)cc2)C(=O)N(C)[C@@H](C)C(=O)N[C@@H](CC(N)=O)C(=O)N2CCC[C@H]2C(=O)N[C@@H](Cc2c[nH]cn2)C(=O)N[C@@H](CCC(N)=O)C(=O)N2C[C@H](O)C[C@H]2C(=O)N[C@@H](Cc2c[nH]c3ccccc23)C(=O)N[C@@H](CO)C(=O)N[C@@H](Cc2cn(CC(=O)O)c3ccccc23)C(=O)N1C (some centres unmarked) [Example 7145] ({CH2CO}-Y(Me)[NMeA]NPHQ[Hyp]WS[Trp(1-CH2COOH)][NMeNle][NMeNle][Thr(3ξ)]CG-NH2; thioether N-14) | 1 to 9.9 nM |
| CCCC[C@H]1C(=O)N(C)[C@@H](CCCC)C(=O)N[C@@H](CCC(=O)O)C(=O)N[C@H](C(=O)NCC(N)=O)CSCC(=O)N[C@@H](Cc2ccc(OC)cc2)C(=O)N(C)[C@@H](C)C(=O)N[C@@H](CC(N)=O)C(=O)N2CCC[C@H]2C(=O)N[C@@H](CN)C(=O)N[C@@H](CCCCN)C(=O)N2C[C@H](O)C[C@H]2C(=O)N[C@@H](Cc2c[nH]c3ccccc23)C(=O)N[C@@H](CCN)C(=O)N[C@@H](Cc2cn(CC(=O)O)c3ccccc23)C(=O)N1C [Example 7146] ({CH2CO}-Y(Me)[NMeA]NP[Dap]K[Hyp]W[Dab][Trp(1-CH2COOH)][NMeNle][NMeNle]ECG-NH2; thioether N-14) | 10 to 99.9 nM |
| CCCC[C@H]1C(=O)N(C)[C@@H](CCCC)C(=O)N[C@@H](CCC(=O)O)C(=O)N[C@H](C(=O)NCC(N)=O)CSCC(=O)N[C@@H](Cc2ccc(OC)cc2)C(=O)N(C)[C@@H](C)C(=O)N[C@@H](CC(=O)O)C(=O)N2CCC[C@H]2C(=O)N[C@@H](Cc2c[nH]cn2)C(=O)N[C@@H](CCCCN)C(=O)N2C[C@H](O)C[C@H]2C(=O)N[C@@H](Cc2c[nH]c3ccccc23)C(=O)N[C@@H](CCN)C(=O)N[C@@H](Cc2cn(CC(=O)O)c3ccccc23)C(=O)N1C [Example 7147] ({CH2CO}-Y(Me)[NMeA]DPHK[Hyp]W[Dab][Trp(1-CH2COOH)][NMeNle][NMeNle]ECG-NH2; thioether N-14) | 1 to 9.9 nM |
| CCCC[C@H]1C(=O)N(C)[C@@H](CCCC)C(=O)N[C@@H](CCC(=O)O)C(=O)N[C@H](C(=O)NCC(N)=O)CSCC(=O)N[C@@H](Cc2ccc(OC)cc2)C(=O)N(C)[C@@H](C)C(=O)N[C@@H](CC(=O)O)C(=O)N2CCC[C@H]2C(=O)N[C@@H](CN)C(=O)N[C@@H](CCCCN)C(=O)N2C[C@H](O)C[C@H]2C(=O)N[C@@H](Cc2c[nH]c3ccccc23)C(=O)N[C@@H](CCN)C(=O)N[C@@H](Cc2cn(CC(=O)O)c3ccccc23)C(=O)N1C [Example 7148] ({CH2CO}-Y(Me)[NMeA]DP[Dap]K[Hyp]W[Dab][Trp(1-CH2COOH)][NMeNle][NMeNle]ECG-NH2; thioether N-14) | 1 to 9.9 nM |
| CCCC[C@H]1C(=O)N(C)[C@@H](CCCC)C(=O)N[C@@H](CC(C)C)C(=O)N[C@H](C(=O)NCC(N)=O)CSCC(=O)N[C@@H](Cc2ccc(OC)cc2)C(=O)N(C)[C@@H](C)C(=O)N[C@@H](CC(N)=O)C(=O)N2CCC[C@@H]2C(=O)N[C@@H](CN)C(=O)N[C@@H](C(C)C)C(=O)N2C[C@@H](O)C[C@@H]2C(=O)N[C@@H](Cc2c[nH]c3ccccc23)C(=O)N[C@@H](CCN)C(=O)N[C@@H](Cc2cn(CC(=O)O)c3ccccc23)C(=O)N1C [Example 7151] ({CH2CO}-Y(Me)[NMeA]N[dP][Dap]V[dHyp]W[Dab][Trp(1-CH2COOH)][NMeNle][NMeNle]LCG-NH2; thioether N-14) | 1 to 9.9 nM |
| CCCC[C@H]1C(=O)N(C)[C@@H](CCCC)C(=O)N[C@@H](CCC(=O)O)C(=O)N[C@H](C(=O)NCC(N)=O)CSCC(=O)N[C@@H](Cc2ccc(OC)cc2)C(=O)N(C)[C@@H](C)C(=O)N[C@@H](CC(=O)O)C(=O)N2CCC[C@H]2C(=O)N[C@@H](CN)C(=O)N[C@@H](CCC(=O)O)C(=O)N2C[C@H](O)C[C@H]2C(=O)N[C@@H](Cc2c[nH]c3ccccc23)C(=O)N[C@@H](CCN)C(=O)N[C@@H](Cc2c[nH]c3ccc(O)cc23)C(=O)N1C [Example 7152] ({CH2CO}-Y(Me)[NMeA]DP[Dap]E[Hyp]W[Dab][Trp(5-OH)][NMeNle][NMeNle]ECG-NH2; thioether N-14) | 10 to 99.9 nM |
| CCCC[C@H]1C(=O)N(C)[C@@H](CCCC)C(=O)N[C@@H](CC(C)C)C(=O)N[C@H](C(=O)NCC(N)=O)CSCC(=O)N[C@@H](Cc2ccc(OC)cc2)C(=O)N(C)[C@@H](C)C(=O)N[C@@H](CC(=O)O)C(=O)N2CCC[C@H]2C(=O)N[C@@H](Cc2cnc[nH]2)C(=O)N[C@@H](CCCCN)C(=O)N2C[C@H](O)C[C@@H]2C(=O)N[C@@H](Cc2c[nH]c3ccccc23)C(=O)N[C@@H](CCCCN)C(=O)N[C@@H](Cc2cn(CC(=O)O)c3ccccc23)C(=O)N1C [Example 7153] ({CH2CO}-Y(Me)[NMeA]DPHK[d(cisHyp)]WK[Trp(1-CH2COOH)][NMeNle][NMeNle]LCG-NH2; thioether N-14) | 1 to 9.9 nM |
| CCCC[C@H]1C(=O)N(C)[C@@H](CCCC)C(=O)N[C@@H](CC(C)C)C(=O)N[C@H](C(=O)NCC(N)=O)CSCC(=O)N[C@@H](Cc2ccc(OC)cc2)C(=O)N(C)[C@@H](C)C(=O)N[C@@H](CC(=O)O)C(=O)N2CCC[C@H]2C(=O)N[C@@H](Cc2cnc[nH]2)C(=O)N[C@@H](CCCCN)C(=O)N2C[C@H](O)C[C@@H]2C(=O)N[C@@H](Cc2c[nH]c3ccccc23)C(=O)N[C@@H](CCCCN)C(=O)N[C@@H](Cc2cn(CC(=O)O)c3ccccc23)C(=O)N1C [Example 7154] ({CH2CO}-Y(Me)[NMeA]DPHK[d(cisHyp)]WK[Trp(1-CH2COOH)][NMeNle][NMeNle]LCG-NH2; thioether N-14) | 10 to 99.9 nM |
| CCCC[C@H]1C(=O)N(C)[C@@H](C)C(=O)N[C@@H](CCCNC(=N)N)C(=O)NC(C(=O)NCC(N)=O)CSCC(=O)N[C@@H](Cc2ccc(O)cc2)C(=O)N(C)[C@@H](C)C(=O)N[C@@H](CC(N)=O)C(=O)N2CCC[C@H]2C(=O)N[C@@H](CO)C(=O)N[C@H](CC(C)C)C(=O)N2C[C@H](O)C[C@H]2C(=O)N[C@@H](Cc2c[nH]c3ccccc23)C(=O)N[C@@H](CO)C(=O)N[C@@H](Cc2c[nH]c3ccccc23)C(=O)N1C (stereo partly drawn) [Example 9115] ({CH2CO}-Y[NMeA]NPS[dL][Hyp]WSW[NMeNle][NMeA]R[ξC]G-NH2; thioether N-14) | 10 to 99.9 nM |
